Common to all, as to assay: DTP human tumour cell line panel, 48 h
Experiment [1] has as its system NCI-H226 lung.
Experiment [2] deals with COLO 205 colon.
The subject of experiment [3] is SW-620 colon.
Experiment [4] has as its system OVCAR-4 ovarian.
The test system of experiment [5] is LOX IMVI melanoma.
The subject of experiment [6] is MDA-MB-435.
Experiment [7] deals with A498 renal.
Experiment [8] has as its system NCI-H522 lung.
For experiment [9], the system named is TK-10 renal.
In experiment [10] the test system is T-47D breast.
The subject of experiment [11] is SK-MEL-28 melanoma.
In experiment [12] the test system is SK-MEL-5 melanoma.
The subject of experiment [13] is SF-268 CNS.
Experiment [14] relates to UACC-257 melanoma.
Experiment [15] concerns HCT-15 colon.
The subject of experiment [16] is OVCAR-5 ovarian.
For experiment [17], the system named is CAKI-1 renal.
Experiment [18] relates to IGROV1 ovarian.
In experiment [19] the test system is EKVX NSCLC.

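Five compound concentrations were applied to cells in 96-well plates for 48 hours; endpoints were derived by simple linear interpolation of the resulting dose-response curve. TGI denotes the concentration required for complete inhibition of growth.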 A value given as a limit tells only on which side of the number the result lay.

In the case of `CC12O[C@]3([C@H](C(=O)N4CCOC43C)[C@H]1Cl)[C@H]1O[C@H]12` (some centres undefined), the TGI (as a rule, the concentration giving total growth inhibition) in experiment [1] was greater than 100 µM; in [2], 91.9 µM; in experiment [3] it was greater than 100 µM; in experiment [4] it was greater than 100 µM; in experiment [5], greater than 100 µM; in experiment [6] it was greater than 100 µM. Also, the TGI in experiment [7], in [8], in experiment [9], in experiment [10], in [11] and in experiment [12] was greater than 100 µM each time. Moreover, the TGI in experiment [13], in [14], in experiment [15], in experiment [16], in [17] and in experiment [18] was greater than 100 µM each time. This compound also registered a TGI in [19] greater than 100 µM.

On to `Cc1cc2c(cc1Cl)SC(NNC(=O)c1ccco1)=NS2(=O)=O`, for which the TGI in experiment [1], in [2], in [3], in experiment [4], in [5] and in experiment [6] was greater than 10 µM in each case. Also, the TGI in experiment [7], in experiment [8], in [9], in experiment [10], in experiment [11] and in experiment [12] was greater than 10 µM each time. In addition, the TGI in experiment [13], in experiment [14], in [15], in experiment [16], in [17] and in [18] was greater than 10 µM throughout. For the same compound, the TGI in [19] was greater than 10 µM.

In the case of `Cc1ccc(S(=O)(=O)N2CCC(=O)c3cc(Br)ccc32)cc1`, the TGI in experiment [1] is greater than 100 µM; in [2], 31.3 µM; in experiment [3] it was greater than 100 µM; in [4], greater than 73.9 µM; in experiment [5], greater than 64.6 µM; in experiment [6], 4.98 µM. Also, the TGI in experiment [7] was 30.1 µM; in [8], greater than 55.6 µM; in [9], 54.4 µM; in experiment [10], greater than 100 µM; in experiment [11] it was greater than 100 µM; in [12] it was 21.7 µM. Besides, the TGI in [13] is greater than 94.8 µM; in experiment [14], 46.6 µM; in experiment [15], greater than 100 µM; in [16], greater than 100 µM; in experiment [17], greater than 100 µM; in experiment [18], greater than 100 µM. The TGI in [19] was 96.3 µM.

As for `c1ccc(-c2nnc(-c3ccccn3)c3c2C[C@@H]2C[C@@H]4Cc5c(-c6ccccn6)nnc(-c6ccccn6)c5[C@@H]4[C@H]32)nc1`, the TGI in experiment [1], in experiment [2], in [3], in [4], in experiment [5] and in experiment [6] was greater than 100 µM throughout. Further, the TGI in experiment [7] is 6.35 µM; in experiment [8], greater than 100 µM; in [9], greater than 100 µM; in [10], greater than 100 µM; in experiment [11], 75.9 µM; in [12], greater than 100 µM. Also, the TGI in experiment [13], in experiment [14], in [15], in experiment [16], in experiment [17] and in experiment [18] was greater than 100 µM throughout. In [19], this compound yielded a TGI of 36.8 µM.

As to `O=c1[nH]nc(-c2ccccc2)n1Nc1ccccc1`, the TGI in [1], in experiment [2], in [3], in experiment [4], in experiment [5] and in [6] was greater than 100 µM each time. Besides, the TGI in experiment [7], in experiment [8], in [9], in experiment [10], in [11] and in [12] was greater than 100 µM in each case. The TGI in [13], in experiment [14], in experiment [15], in [16], in experiment [17] and in [18] was greater than 100 µM in each case. In [19], this compound had a TGI greater than 100 µM.

Turning to `C[C@]12CC[C@@H]3c4ccc(O)cc4CC[C@H]3[C@@H]1CC[C@@H]2OP(=O)(O)O`, the TGI in experiment [1], in experiment [2], in experiment [3], in experiment [4], in [5] and in experiment [6] was greater than 100 µM throughout. Besides, the TGI in [7], in experiment [8], in [9], in experiment [10], in experiment [11] and in experiment [12] was greater than 100 µM throughout. The TGI in [13], in experiment [14], in experiment [15], in [16], in [17] and in experiment [18] was greater than 100 µM in each case. In [19], this compound displayed a TGI greater than 100 µM.

As for `OC1c2ccccc2CC12Cc1ccccc1C2` (centres undefined), the total growth inhibition concentration (TGI) in [1] is 25.1 µM; in experiment [2] it was greater than 100 µM; in [3] it was greater than 100 µM; in [4], greater than 100 µM; in experiment [5] it was greater than 100 µM; in [6], greater than 100 µM. Also, the TGI is greater than 100 µM in experiment [7]; greater than 100 µM in experiment [8]; greater than 100 µM in experiment [9]; greater than 100 µM in experiment [10]; greater than 100 µM in [11]; 49.6 µM in [12]. Further, the TGI in experiment [13], in [14], in experiment [15], in experiment [16], in experiment [17] and in experiment [18] was greater than 100 µM each time. In addition, the total growth inhibition concentration (TGI) in experiment [19] is greater than 100 µM.

For `Cc1ccc(Cc2n[nH]c(=O)n2Nc2ccccc2)cc1`, the TGI in experiment [1], in [2], in [3], in experiment [4], in experiment [5] and in experiment [6] was greater than 100 µM in each case. The TGI in experiment [7], in [8], in experiment [9], in [10], in [11] and in experiment [12] was greater than 100 µM each time. The TGI in [13], in experiment [14], in [15], in experiment [16], in experiment [17] and in experiment [18] was greater than 100 µM throughout. For the same compound, the TGI in [19] was greater than 100 µM.

For the compound `CC[C@H](CCCC[C@H]1CC[C@@H]2CC(=O)C[C@H]12)OC`, the TGI in experiment [1], in experiment [2], in experiment [3], in experiment [4], in experiment [5] and in [6] was greater than 100 µM each time. Besides, the TGI was greater than 100 µM in [7]; greater than 100 µM in experiment [8]; greater than 100 µM in [9]; greater than 100 µM in [10]; greater than 100 µM in [11]; 93 µM in experiment [12]. Further, the TGI in experiment [13], in experiment [14], in experiment [15], in [16], in [17] and in [18] was greater than 100 µM in each case. This compound also returned a TGI in experiment [19] greater than 100 µM.

`O=C1C(N2CCN(c3ccccn3)CC2)=C(Cl)C(=O)c2ncccc21`: the TGI in experiment [1] is greater than 10 µM; in [2], 3.49 µM; in [3], 2.78 µM; in experiment [4] it was 1.95 µM; in [5], 5.35 µM; in experiment [6] it was greater than 5.27 µM. Also, the TGI in experiment [7] was greater than 10 µM; in experiment [8], 1.03 µM; in [9], greater than 6.41 µM; in experiment [10], 4.09 µM; in experiment [11], greater than 7.95 µM; in [12] it was 3.27 µM. Moreover, the TGI in experiment [13] is greater than 10 µM; in [14] it was greater than 5.88 µM; in experiment [15], 4.06 µM; in [16], greater than 10 µM; in [17] it was 2.12 µM; in experiment [18] it was greater than 10 µM. Moreover, the TGI in [19] is greater than 10 µM.

Take `CC[C@@]1(O)C(=O)OCc2c1cc1n(c2=O)Cc2c-1nc1ccccc1c2/C=N\NC(=O)C(N)CO` (some centres undefined): the TGI in experiment [1] is 23.2 µM; in experiment [2], greater than 100 µM; in experiment [3], greater than 100 µM; in [4] it was greater than 100 µM; in experiment [5], 6.15 µM; in [6], greater than 31.6 µM. For the same compound, the TGI in experiment [7] is 12.2 µM; in [8] it was greater than 42.2 µM; in experiment [9] it was greater than 100 µM; in experiment [10] it was greater than 100 µM; in [11] it was greater than 100 µM; in [12], 2.55 µM. In addition, the TGI in experiment [13] is 7.36 µM; in experiment [14], greater than 65.8 µM; in [15], greater than 100 µM; in experiment [16], greater than 100 µM; in experiment [17], greater than 27.2 µM; in [18] it was greater than 100 µM. The same compound showed a TGI in experiment [19] greater than 100 µM.

Values taken from PubChem BioAssay (NCI).
